Here are results for one compound from ChEMBL document CHEMBL3797106, “Potent and Selective Agonists of Sphingosine 1-Phosphate 1 (S1P1): Discovery and SAR of a Novel Isoxazole Based Series” (J Med Chem, 2016).

The target in one data set is T1, Cytochrome P450 2C8 (Homo sapiens, UniProt P10632).
T1 sequence (P10632 whole entry): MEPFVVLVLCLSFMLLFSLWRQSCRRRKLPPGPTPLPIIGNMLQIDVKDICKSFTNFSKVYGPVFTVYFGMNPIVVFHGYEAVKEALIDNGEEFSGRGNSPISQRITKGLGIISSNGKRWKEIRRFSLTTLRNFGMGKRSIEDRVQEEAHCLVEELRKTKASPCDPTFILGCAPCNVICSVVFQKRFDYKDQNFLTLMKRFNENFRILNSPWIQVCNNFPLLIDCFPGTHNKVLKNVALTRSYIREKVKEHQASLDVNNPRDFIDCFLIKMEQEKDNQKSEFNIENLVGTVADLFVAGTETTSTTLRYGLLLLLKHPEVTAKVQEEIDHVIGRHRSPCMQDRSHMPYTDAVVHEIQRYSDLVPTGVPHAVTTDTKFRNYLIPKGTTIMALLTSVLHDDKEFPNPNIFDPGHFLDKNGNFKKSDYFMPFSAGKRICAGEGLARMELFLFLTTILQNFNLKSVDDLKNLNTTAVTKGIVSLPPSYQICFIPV
The experiment in a line: Inhibition of CYP2C8 (unknown origin). In kind it is ADME.

In data set [1] the test system is Rattus norvegicus. The experiment in a line: Ratio of Cmax to Cmin in rat at 5 mg/kg, po. In kind it is ADME, organism-based. The conditions noted are these: in vivo.
Data set [2] deals with Mus musculus. The experiment in a line: Oral bioavailability in mouse at 10 mg/kg. In kind it is ADME, organism-based. The conditions noted are these: in vivo.
Data set [3] is described as follows: Clearance in rat at 2 mg/kg, iv. As to conditions: in vivo. It counts as ADME, organism-based.
A further data set has as its system Plasma. The experiment in a line: Ratio drug level in Lewis rat plasma at 1 mg/kg, po at 4 hrs to drug level in Lewis rat plasma at 1 mg/kg, po at 24 hrs. In kind it is ADME, organism-based. The conditions noted are these: in vivo.
Data set [4] is described as follows: AUC in rat at 5 mg/kg, po. In kind it is ADME, organism-based. As to conditions: in vivo.
Data set [5] relates to Rattus norvegicus. The experiment in a line: Reduction of blood lymphocyte level in Lewis rat at 0.3 mg/kg, po measured at 4 hrs by hematology analyzer relative to vehicle-treated control. Details: scale not given: the % may be the effect or the level left. In kind it is functional.
Data set [6] concerns Mus musculus. The experiment in a line: Reduction in overall disease severity in po dosed C57BL/6 mouse experimental autoimmune encephalomyelitis model of multiple sclerosis administered as qd for 24 days started from day of immunization measured 3 times per week of compound dosing. In kind it is functional, organism-based.
In a further data set the test system is Canis familiaris. The experiment in a line: Clearance in dog at 1 mg/kg, iv relative to hepatic blood flow. In kind it is ADME, organism-based, Canis lupus familiaris, Liver. As to conditions: in vivo.
Data set [7] relates to Rattus norvegicus. The experiment in a line: Antiarthritic activity in complete Freund's adjuvant-induced Lewis rat arthritis model assessed as suppression of paw swelling at 0.1 mg/kg, po qd for 21 days started from day of immunization measured 3 times per week of compound dosing by water displacement plethysmometry relative to control. In kind it is functional.

Structures are written as SMILES.

On Cytochrome P450 2C8, `O=C(O)C1CN(Cc2ccc(-c3noc(-c4onc(-c5ccccc5)c4C(F)(F)F)n3)cc2)C1` came in with a 50% inhibitory concentration (IC50) above 40 µM. Also, the Ratio with Rattus norvegicus [1] is 6; in the data set on Plasma, 3. The compound also registered a F in the data set on Mus musculus [2] of 71%. In addition, the clearance in data set [3] came to 1.7 mL/min/kg. Besides, the AUC in data set [4] was determined as 44 µM·h. Also, the Activity in the data set on Rattus norvegicus [5] is 82%; with Mus musculus [6] it was “Dose-dependent effect”; in the data set with Rattus norvegicus [7] it was above 50%. In addition, the CL in the data set with Canis familiaris turned out to be 5.2%.

The IC50 is the concentration needed to halve the response being measured. For orientation: clearance means a measure of how efficiently the substance is removed, as volume per time. One may read the AUC as concentration integrated over time.
